Test results published in patent US9469653B2, “Pharmaceutical compositions for preventing or treating degenerative brain disease and method of screening the same” (KOREA INSTITUTE OF SCIENCE AND TECHNOLOGY, priority 2011, dated 2016).
Where two headings read alike, the source gives them in different places.

Key:
human MAO-B enzyme [1] = molecular target: T1, human MAO-B enzyme (Homo sapiens (Human), UniProt P27338); assay: Screening of MAO-B activity inhibition (Amplex Red monoamine oxidase assay kit, benzylamine substrate); type: biochemical
T1 sequence (P27338 whole entry): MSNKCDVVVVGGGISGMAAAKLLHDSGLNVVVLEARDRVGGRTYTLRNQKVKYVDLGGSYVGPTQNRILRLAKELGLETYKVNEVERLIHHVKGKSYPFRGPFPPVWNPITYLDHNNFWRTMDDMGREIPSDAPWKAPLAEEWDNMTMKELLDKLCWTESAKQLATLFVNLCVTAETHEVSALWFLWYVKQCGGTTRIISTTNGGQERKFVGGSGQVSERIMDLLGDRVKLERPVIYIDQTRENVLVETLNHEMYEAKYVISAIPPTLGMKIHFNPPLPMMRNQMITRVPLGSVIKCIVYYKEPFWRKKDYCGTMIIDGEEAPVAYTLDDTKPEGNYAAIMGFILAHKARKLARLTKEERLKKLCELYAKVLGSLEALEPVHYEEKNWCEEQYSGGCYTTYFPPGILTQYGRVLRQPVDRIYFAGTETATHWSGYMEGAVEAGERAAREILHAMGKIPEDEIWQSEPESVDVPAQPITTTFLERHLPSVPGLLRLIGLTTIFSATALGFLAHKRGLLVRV

human MAO-B enzyme [2] = molecular target: T1, human MAO-B enzyme; assay: as above; type: biochemical; settings: 10 uM of the synthesized compound, pargyline-corrected
Method: A stock solution was prepared using a human MAO-B enzyme (purchased from Aldrich) and a Amplex® Red monoamine oxidase assay kit according to a preparation manual. The kit includes a 5× reaction buffer, an Amplex® red reagent (1 mg), HRP, DMSO, H2O2, p-tyramine (substrate of MAO-A, B), benzylamine (substrate of MAO-B), clorgiline (inhibitor of MAO-A), and pargyline (inhibitor of MAO-B). Among these reagents in the kit, benzylamine was used as a substrate for MAO-B, and pargyline was used as an MAO-B inhibitor. A solution as overall substrates was prepared as follows. 200 ul of a solution of 1 mg of Amplex® red sufficiently dissolved in 200 ul of DMSO, 100 ul of a mixed solution of HRP and 1 ml of a 1× buffer, 200 ul of a solution of benzylamine dissolved in 1.2 ml of dH2O were added to 9.5 ml of a 1× buffer to reach a total volume of 10 mL, which is sufficient for 100 wells. 0.5 ul of a mixture of MAO-B inhibitor pargyline and 1 ml of dH2O was put into each well. First, the activity of MAO-B was determined using 10 uM of the synthesized compound.
96 wells were injected with positive and negative types, and the wile type. The positive type included only substrate and hydrogen peroxide, and the negative type included only substrate. For the wild type, corresponding wells were injected with the enzyme, substrate, and MAO-B inhibitor, but with no synthesized compound. Afterward, 2 ul of the synthesized compound (1 mM) was added into each well, and the human MAO-B enzyme was put only into the 1st row of wells. 0.5 ug of the human MAO-B was put into each well along with 100 ul of a 1× buffer. The human MAO-B enzyme was put into the 2nd row of the wells along with 0.5 ul of a pargyline, the MAO-B inhibitor. To reduce an experimental error for accuracy, the test was repeated three times for each compound. After 30 minutes, 100 ul of the substrate solution was added into each well in a darkroom. The test was performed in the darkroom due to light sensitivity of the Amplex® reagent. Finally, a total volume of the reaction solution per well reached 200 ul. After about 2 to 3 hours, chromophoric degrees of the samples were measured. A variation in data values for the 1st and 2nd rows of the wells indicates the pure reaction activity of the MAO-B enzyme with the substrate. Using the samples with the synthesized compound the remaining activity of MAO-B after inhibited by the synthesized compound may be determined. This is because the activities of the other enzymes excluding the MAO-B enzyme may be excluded through this method. Compounds with high inhibitory activity at a concentration of 10 uM were screened from among the synthesized compounds at a compound concentration of 10 uM.

[3] = activity assay at 0.001, 0.01, 0.1, 1 and 10 uM

Compound | IC50 (human MAO-B enzyme [1]; [3]) | Remaining activity of MAO-B (%) (human MAO-B enzyme [2]) | IC50 (human MAO-B enzyme [1])
c1ccc(-c2nc3ccc(N4CCCC4)nc3s2)cc1 [Example 5-31, 2-phenyl-5-(pyrrolidine-1-yl)thiazolo[5,4-b]pyridine] | 7.3 µM | 1.7% | –
c1ccc(-c2nc3ccc(N4CCCCC4)nc3s2)cc1 [Example 5-38, 2-phenyl-5-(piperidine-1-yl)thiazolo[5,4-b]pyridine] | 8.3 µM | 1.8% | –
Fc1cccc(-c2nc3ccc(N4CCCCC4)nc3o2)c1 [Example 5-40, 2-(3-fluorophenyl)-5-(piperidine-1-yl)oxazolo[5,4-b]pyridine] | 0.27 µM | 13.8% | –
2-fluorophenyl-5-(pyrrolidine-1-yl)oxazolo[5,4-b]pyridine [Example 5-34] | – | 8.4% | 8.7 µM
CNc1ccc2nc(-c3cccc(F)c3)oc2n1 [Example 5-75, 2-(3-fluorophenyl)-N-methyloxazolo[5,4-b]pyridine-5-amine] | 9.86 µM | 22% | –
CN(Cc1ccccc1)c1ccc2nc(-c3cccc(Cl)c3)oc2n1 [Example 5-67, N-benzyl-2-(3-chlorophenyl)-N-methyloxazolo[5,4-b]pyridine-5-amine] | 68.2 µM | 47.3% | –
c1ccc(-c2nc3ccc(N4CCCC4)nc3o2)cc1 [Example 5-30, 2-phenyl-5-(pyrrolidine-1-yl)oxazolo[5,4-b]pyridine] | 0.41 µM | 2.31% | –
Brc1ccc(-c2nc3ccc(N4CCCCC4)nc3o2)cc1 [Example 5-47, 2-(4-bromophenyl)-5-(piperidine-1-yl)oxazolo[5,4-b]pyridine] | 0.096 µM | 28.6% | –
Clc1ccccc1-c1nc2ccc(N3CCCCC3)nc2o1 [Example 5-39, 2-chlorophenyl-5-(piperidine-1-yl)oxazolo[5,4-b]pyridine] | 13.2 µM | 0.6% | –
CNc1ccc2nc(-c3ccccc3)sc2n1 [Example 5-74, N-methyl-2-phenylthiazolo[5,4-b]pyridine-5-amine] | 15.7 µM | 27.2% | –
